Reference: patent US20090075951A1, “Methods and Reagents for the Treatment of Inflammatory Disorders” (CombinatoRx, Inc., priority 2003, published 2009)
Like-named read-outs stand apart in the source and are kept apart here.

Columns and labels:
[1] = test system: TNFα secretion from LPS stimulated white blood cells from human buffy coat; test: TNFα secretion assay, LPS stimulation; conditions: Homo sapiens
Procedure: (§1) Various concentrations of each test compound were added at the time of stimulation. […] After the plate was washed with 0.1% Tween 20/PBS, an HRP-luminescent substrate was added to each well and light intensity measured using a LJL Analyst plate luminometer.

[2] = test system: TNFα secretion from PMA/ionomycin stimulated white blood cells from human buffy coat; test: TNFα secretion assay, PMA/ionomycin stimulation
Procedure: as §1

cytokine secretion = test: Suppression of cytokine secretion in vitro by individual tricyclic compounds
Procedure: Individual tricyclic compounds were tested for their ability to suppress cytokine secretion in vitro.

[3] = read-out: TNFα LPS percent inhibition
[4] = read-out: TNFα PI percent inhibition
[5] = read-out: IL-1β LPS percent inhibition
[6] = read-out: IL-2 PI percent inhibition
[7] = read-out: TNFα LPS percent inhibition, 0.03 μM
[8] = read-out: TNFα LPS percent inhibition, 0.06 μM
[9] = read-out: TNFα LPS percent inhibition, […]
[10] = read-out: TNFα PI percent inhibition, 0.03 μM
[11] = read-out: TNFα PI percent inhibition, 0.06 μM
[12] = read-out: TNFα PI percent inhibition, […]

Structure (SMILES): Cc1cc2c(s1)Nc1ccccc1N=C2N1CCN(C)CC1 [Olanzapine]
- inhibition at 0.03 µM [1, 3]: 0%
- inhibition at 0.06 µM [1, 3]: 0%
- inhibition at 0.5 µM [1, 3]: 0%
- inhibition at 1 µM [1, 3]: 0%
- inhibition at 2 µM [1, 3]: 0%
- inhibition at 4 µM [1, 3]: 0%
- inhibition at 8 µM [1, 3]: 0%
- inhibition at 16 µM [1, 3]: 0%
- inhibition at 32 µM [1, 3]: 0%
- inhibition at 64 µM [1, 3]: 10%
- inhibition at 0.03 µM [2, 4]: 0%
- inhibition at 0.06 µM [2, 4]: 0%
- inhibition at 0.5 µM [2, 4]: 0%
- inhibition at 1 µM [2, 4]: 0%
- inhibition at 2 µM [2, 4]: 0%
- inhibition at 4 µM [2, 4]: 0%
- inhibition at 8 µM [2, 4]: 0%
- inhibition at 16 µM [2, 4]: 13%
- inhibition at 32 µM [2, 4]: 27%
- inhibition at 64 µM [2, 4]: 54%
- inhibition at 0.03 µM (cytokine secretion; [5]): 0%
- inhibition at 0.06 µM (cytokine secretion; [5]): 0%
- inhibition at 0.5 µM (cytokine secretion; [5]): 2%
- inhibition at 1 µM (cytokine secretion; [5]): 5%
- inhibition at 2 µM (cytokine secretion; [5]): 3%
- inhibition at 4 µM (cytokine secretion; [5]): 3%
- inhibition at 8 µM (cytokine secretion; [5]): 7%
- inhibition at 16 µM (cytokine secretion; [5]): 21%
- inhibition at 32 µM (cytokine secretion; [5]): 41%
- inhibition at 64 µM (cytokine secretion; [5]): 40%
- inhibition at 0.03 µM (cytokine secretion; [6]): 0%
- inhibition at 0.06 µM (cytokine secretion; [6]): 0%
- inhibition at 0.5 µM (cytokine secretion; [6]): 0%
- inhibition at 1 µM (cytokine secretion; [6]): 0%
- inhibition at 2 µM (cytokine secretion; [6]): 0%
- inhibition at 4 µM (cytokine secretion; [6]): 0%
- inhibition at 8 µM (cytokine secretion; [6]): 0%
- inhibition at 16 µM (cytokine secretion; [6]): 0%
- inhibition at 32 µM (cytokine secretion; [6]): 0%
- inhibition at 64 µM (cytokine secretion; [6]): 0%

Structure (SMILES): CN(C)CCC=C1c2ccccc2CCc2ccccc21 [Amitriptyline, amitriptyline]
- inhibition at 0.03 µM [1, 7]: 0%
- inhibition at 0.06 µM [1, 8]: 0%
- inhibition at 0.5 µM ([1]; read-out: TNFα LPS percent inhibition, 0.50 μM): 0%
- inhibition at 1 µM ([1]; read-out: TNFα LPS percent inhibition, 1.00 μM): 0%
- inhibition at 2 µM ([1]; read-out: TNFα LPS percent inhibition, 2.00 μM): 0%
- inhibition at 4 µM ([1]; read-out: TNFα LPS percent inhibition, 4.00 μM): 0%
- inhibition at 8 µM ([1]; read-out: TNFα LPS percent inhibition, 8.00 μM): 0%
- inhibition at 16 µM [1, 9]: 0%
- inhibition at 32 µM [1, 9]: 18%
- inhibition at 64 µM [1, 9]: 45%
- inhibition at 0.03 µM [2, 10]: 0%
- inhibition at 0.06 µM [2, 11]: 0%
- inhibition at 0.5 µM ([2]; read-out: TNFα PI percent inhibition, 0.50 μM): 0%
- inhibition at 1 µM ([2]; read-out: TNFα PI percent inhibition, 1.00 μM): 0%
- inhibition at 2 µM ([2]; read-out: TNFα PI percent inhibition, 2.00 μM): 0%
- inhibition at 4 µM ([2]; read-out: TNFα PI percent inhibition, 4.00 μM): 5%
- inhibition at 8 µM ([2]; read-out: TNFα PI percent inhibition, 8.00 μM): 21%
- inhibition at 16 µM [2, 12]: 35%
- inhibition at 32 µM [2, 12]: 66%
- inhibition at 64 µM [2, 12]: 81%
- inhibition at 0.03 µM (cytokine secretion; [5]): 0%
- inhibition at 0.06 µM (cytokine secretion; [5]): 0%
- inhibition at 0.5 µM (cytokine secretion; [5]): 0%
- inhibition at 1 µM (cytokine secretion; [5]): 0%
- inhibition at 2 µM (cytokine secretion; [5]): 0%
- inhibition at 4 µM (cytokine secretion; [5]): 11%
- inhibition at 8 µM (cytokine secretion; [5]): 7%
- inhibition at 16 µM (cytokine secretion; [5]): 0%
- inhibition at 32 µM (cytokine secretion; [5]): 0%
- inhibition at 64 µM (cytokine secretion; [5]): 0%
- inhibition at 0.03 µM (cytokine secretion; [6]): 0%
- inhibition at 0.06 µM (cytokine secretion; [6]): 2%
- inhibition at 0.5 µM (cytokine secretion; [6]): 0%
- inhibition at 1 µM (cytokine secretion; [6]): 0%
- inhibition at 2 µM (cytokine secretion; [6]): 0%
- inhibition at 4 µM (cytokine secretion; [6]): 4%
- inhibition at 8 µM (cytokine secretion; [6]): 7%
- inhibition at 16 µM (cytokine secretion; [6]): 33%
- inhibition at 32 µM (cytokine secretion; [6]): 62%
- inhibition at 64 µM (cytokine secretion; [6]): 82%

Structure (SMILES): CC(CN(C)C)CN1c2ccccc2CCc2ccccc21 (stereo not drawn) [Trimipramine, trimipramine]
- inhibition at 0.01 µM ([1]; read-out: TNFα LPS percent inhibition, 0.01 μM): 0%
- inhibition at 0.03 µM [1, 7]: 1%
- inhibition at 0.06 µM [1, 8]: 3%
- inhibition at 29 µM [1, 9]: 11%
- inhibition at 0.01 µM ([2]; read-out: TNFα PI percent inhibition, 0.01 μM): 0%
- inhibition at 0.03 µM [2, 10]: 0%
- inhibition at 0.06 µM [2, 11]: 0%
- inhibition at 29 µM [2, 12]: 77%
- inhibition at 0.01 µM (cytokine secretion; [5]): 0%
- inhibition at 0.03 µM (cytokine secretion; [5]): 0%
- inhibition at 0.06 µM (cytokine secretion; [5]): 0%
- inhibition at 29 µM (cytokine secretion; [5]): 2%
- inhibition at 0.01 µM (cytokine secretion; [6]): 0%
- inhibition at 0.03 µM (cytokine secretion; [6]): 5%
- inhibition at 0.06 µM (cytokine secretion; [6]): 6%
- inhibition at 29 µM (cytokine secretion; [6]): 36%

Structure (SMILES): CN(C)CCCN1c2ccccc2CCc2ccccc21 [Imipramine, imipramine]
- inhibition at 0.03 µM [1, 7]: 0%
- inhibition at 0.06 µM [1, 8]: 10%
- inhibition at 63 µM [1, 9]: 3%
- inhibition at 0.03 µM [2, 10]: 0%
- inhibition at 0.06 µM [2, 11]: 0%
- inhibition at 63 µM [2, 12]: 92%
- inhibition at 0.03 µM (cytokine secretion; [5]): 0%
- inhibition at 0.06 µM (cytokine secretion; [5]): 0%
- inhibition at 63 µM (cytokine secretion; [5]): 13%
- inhibition at 0.03 µM (cytokine secretion; [6]): 0%
- inhibition at 0.06 µM (cytokine secretion; [6]): 19%
- inhibition at 63 µM (cytokine secretion; [6]): 85%
